Data reported in PMC11141866, “Pyrimidine depletion enhances targeted and immune therapy combinations in acute myeloid leukemia” (JCI Insight, 2024).
Several values for one entry are separate records, joined by “and”; a condition that tells them apart may be missing. Identical values can stand only once. Like-named read-outs stand apart in the source and are kept apart here.

Columns and labels:
THP1 = test: MTS proliferation assay, THP1; type: cell-based; conditions: Homo sapiens, THP-1; THP1, 96-hour treatment; read-out: IC50 (MTS proliferation)
Experimental: (§1) A total of 10,000–20,000 cells from different AML lines or 50,000–75,000 cells of primary AML blasts were treated in a 96-well plate for 72 hours or 96 hours at 37°C, 5% CO2. CellTiter 96 Aqueous MTS reagent (Promega) was added to cells followed by a 3-hour incubation at 37°C, 5% CO2. The absorbance was measured at 490 nm using DTX 880 plate reader, and the IC50 was calculated using GraphPad Prism.

U937 = test: MTS proliferation assay, U937; type: cell-based; conditions: Homo sapiens, U-937; U937, 96-hour treatment; read-out: IC50 (MTS proliferation)
Experimental: as §1

[1] = HOSU-53 plasma exposure in MOLM-13 tumor-bearing mice; type: in vivo, NCG mice; conditions: per mouse; for AUC: NCG, mouse, plasma, po, read-out: HOSU-53 AUCall
Experimental: Male 8- to 12-week-old NCG mice were engrafted with 1 × 10^5 cells via tail vein i.v. injection. […] Figure 3B and Figure 4, A and B, share the same vehicle group. page 6: Plasma samples were obtained following appropriate dosing administration and saved in the -80°C freezer till the time of analysis. Analyses by LC-MS/MS followed sample extraction by protein precipitation and separation by Ultra Performance Liquid Chromatography (UPLC, Waters Corporation, MA, USA) using a C18 column, 1.7um, 2.1x50mm, Mobile Phase A: 5:95:0.1 (v:v:v) Acetonitrile:Water:Formic Acid, Mobile Phase B: 50:50:0.1 (v:v:v) Methanol:Acetonitrile:Formic Acid. MS/MS analyses were performed on an API-6500 (Absciex MA, USA) in positive mode using an electrospray source at 550°C. The internal standard was d4-AEA monitored at 352.2 and 66.0 m/z transitions and the target analyte, HOSU-53, was monitored at 416.5 and 331.1 m/z transitions. The assay was qualified between 10-5,000 ng/ml HOSU53 to be within ±20% for QCs above the LLOQ in this range and ±25% at the LLOQ. DHO concentration quantification in mouse plasma samples. Plasma samples were obtained following appropriate dosing administration and saved in the -80°C freezer till the time of analysis. Analyses by LC-MS/MS followed sample extraction by protein precipitation and separation by Ultra Performance Liquid Chromatography (UPLC, Waters Corporation, MA, USA) using a Phenomenex Aqua C18 100x4.6mm, 3uM, […], Mobile Phase A: 100:0.1 (v:v) Water:Formic Acid, Mobile Phase B: 100:0.1 (v:v) Methanol:Formic Acid. MS/MS analyses were performed on an API-4000 (Absciex MA, USA) in negative mode using an electrospray source at 550°C. The internal standard was labeled 13C14_L-Dihydroorotic Acid monitored at 161.3 and 117.1 m/z transitions and the target analyte, L-Dihydroorotic Acid (DHO), was monitored at 157.0 and 70.0 m/z transitions. The assay was qualified between 10.0-30,000 ng/ml DHO to be within ±20% for QCs above the LLOQ in this range and ±25% at the LLOQ.

[2] = system: MOLM-13 disseminated CDX AML model; test: MOLM-13 CDX synergy with azacitidine / venetoclax; type: in vivo, NCG mice; conditions: HOSU-53 4 mg/kg po qd; event 1 = death, 0 = censored; 4 mg/kg
Experimental: Female 8- to 12-week-old NCG mice were engrafted with 1 × 10^5 cells via tail vein i.v. injection. Four days postengraftment (day 1 of treatment), mice (n = 10/arm) were randomized to receive p.o. qd vehicle (40% HPβCD, n = 10; or 60% Phosal 50 PG, 30% PEG 400, and 10% ethanol, n = 10), 4 mg/kg HOSU-53, 25 mg/kg ven, or i.p. 1.5 mg/kg aza on a 5 days on/16 days off cycle, combinations of double regimens and triple regimens till moribundity or end of study, day 53.
Supplemental Figure S.4. […] Using the FLT3 […]
were enrolled to receive daily oral 4 mg/kg HOSU-53 to compare its monotherapy efficacy with daily oral 25 mg/kg venetoclax (ven) monotherapy or 1.5 mg/kg azacitidine (aza) HMA i.p. for five days every 16 days cycle monotherapy or the combination of aza/ven versus ven/ HOSU-53 versus aza/HOSU-53 versus the triple aza/ven/HOSU-53 regimen.

[3] = system: MOLM-13 disseminated CDX AML model; test: MOLM-13 CDX synergy with anti-CD47 immunotherapy; type: in vivo, NCG mice; conditions: event 1 = death, 0 = censored
Experimental: Male 8- to 12-week-old NCG mice were engrafted with […] cells via tail vein i.v. injection. Four days after engraftment (day 1 of treatment), mice (n = 10/arm) were randomized to receive p.o. qd and i.p. vehicle, daily oral 4 mg/kg or 10 mg/kg HOSU-53, 0.5 mg/animal i.p. anti-CD47 B6H12 (BioXCell) daily for 21 days, or HOSU-53 combination with anti-CD47. At day 80, half of the surviving mice in the combination cohorts were euthanized for bone marrow collection, leaving the remaining mice in the group on study without receiving any treatment. […] Figure 8, A and B, share the same vehicle and anti-CD47 cohorts.

CYP 1A2 = CYP 1A2 (Homo sapiens, UniProt P05177); test: CYP inhibition 1A2; type: in vitro ADME
Text: (§2) Supplement jciinsight-9-173646-s083.xlsx, sheet "Supplemental Table S.2." | column: HOSU-53

CYP 2C8 = CYP 2C8 (Homo sapiens, UniProt P10632); test: CYP inhibition 2C8; type: in vitro ADME
Text: as §2

In vivo p.o. PK in rat = conditions: po
Text: as §2

Chain of CYP 2C8 (P10632 whole entry): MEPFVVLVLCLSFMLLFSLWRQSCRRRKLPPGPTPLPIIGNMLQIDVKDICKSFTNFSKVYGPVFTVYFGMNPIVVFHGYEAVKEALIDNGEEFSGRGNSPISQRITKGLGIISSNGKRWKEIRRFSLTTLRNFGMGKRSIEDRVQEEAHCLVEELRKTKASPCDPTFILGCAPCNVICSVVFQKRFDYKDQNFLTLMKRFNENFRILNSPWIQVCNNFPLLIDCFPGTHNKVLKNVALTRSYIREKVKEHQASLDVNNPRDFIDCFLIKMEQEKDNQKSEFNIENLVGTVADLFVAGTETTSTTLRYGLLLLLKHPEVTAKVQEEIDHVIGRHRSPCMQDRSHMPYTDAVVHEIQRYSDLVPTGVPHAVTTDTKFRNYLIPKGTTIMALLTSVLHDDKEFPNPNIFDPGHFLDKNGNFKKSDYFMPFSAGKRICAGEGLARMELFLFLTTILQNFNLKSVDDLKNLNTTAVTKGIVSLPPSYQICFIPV
Chain of CYP 1A2 (P05177 whole entry): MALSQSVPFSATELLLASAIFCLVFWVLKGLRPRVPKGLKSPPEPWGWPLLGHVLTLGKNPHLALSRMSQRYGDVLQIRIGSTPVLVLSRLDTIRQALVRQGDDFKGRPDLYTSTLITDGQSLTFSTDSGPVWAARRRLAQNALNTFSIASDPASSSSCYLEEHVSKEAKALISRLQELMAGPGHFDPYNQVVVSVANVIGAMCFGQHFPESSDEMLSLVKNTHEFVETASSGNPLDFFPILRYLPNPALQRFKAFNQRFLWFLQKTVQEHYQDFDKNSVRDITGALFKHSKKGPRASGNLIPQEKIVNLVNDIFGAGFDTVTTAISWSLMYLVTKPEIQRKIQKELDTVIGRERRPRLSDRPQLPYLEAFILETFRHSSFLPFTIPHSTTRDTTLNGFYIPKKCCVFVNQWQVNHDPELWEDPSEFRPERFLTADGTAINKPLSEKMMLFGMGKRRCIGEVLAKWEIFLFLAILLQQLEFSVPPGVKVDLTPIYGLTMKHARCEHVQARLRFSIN

**Q.** With `CCCCOc1cccc(-c2ccc(-c3cc(C(=O)O)c4cc(F)ccc4n3)cc2)c1` [HOSU-53] as the compound, how does the IC50 (THP1) read?
**A.** 0.05 µM

**Q.** What about the IC50 (U937) of the same compound?
**A.** 0.033 µM

**Q.** What about the “HOSU-53 AUCall” value ([1]; Day 1, 4 mpk PO, male mice, 4 mg/kg) of the same compound?
**A.** 915.984 µM·h and 1069.99 µM·h

**Q.** And the “HOSU-53 AUCall” value ([1]; Day 1, 10 mpk PO, male mice, 10 mg/kg)?
**A.** 1989.31 µM·h and 1940.99 µM·h

**Q.** What about the “HOSU-53 AUCall” value ([1]; Day 1, 20 mpk PO, male mice, 20 mg/kg) of the same compound?
**A.** 3244.97 µM·h and 3430.6 µM·h

**Q.** What about the “HOSU-53 AUCall” value ([1]; Day 1, 30 mpk PO, male mice, 30 mg/kg) of the same compound?
**A.** 5214.04 µM·h and 4142.06 µM·h

**Q.** What about the “HOSU-53 AUCall” value ([1]; Day 14, 4 mpk PO, male mice, 4 mg/kg) of the same compound?
**A.** 2230.22 µM·h and 2019.88 µM·h

**Q.** And the “HOSU-53 AUCall” value ([1]; Day 14, 10 mpk PO, male mice, 10 mg/kg)?
**A.** 3666.3 µM·h and 3989.64 µM·h

**Q.** What about the “HOSU-53 AUCall” value ([1]; Day 14, 20 mpk PO, male mice, 20 mg/kg) of the same compound?
**A.** 6180.8 µM·h and 5557.2 µM·h

**Q.** And the “HOSU-53 AUCall” value ([1]; Day 14, 30 mpk PO, male mice, 30 mg/kg)?
**A.** 7551.75 µM·h and 6154.9 µM·h

**Q.** What about the AUC ([1]; female, 10 mg/kg, Day 1, 10 mpk PO, female mice) of the same compound?
**A.** 2830 µM·h

**Q.** What about the AUC ([1]; female, 10 mg/kg, Day 14, 10 mpk PO, female mice) of the same compound?
**A.** 3980 µM·h

**Q.** And the AUC ([1]; male, 4 mg/kg, Day 1, 4 mpk PO, male mice)?
**A.** 780 µM·h

**Q.** And the AUC ([1]; male, 4 mg/kg, Day 14, 4 mpk PO, male mice)?
**A.** 1930 µM·h

**Q.** And the AUC ([1]; male, 10 mg/kg, Day 1, 10 mpk PO, male mice)?
**A.** 1890 µM·h

**Q.** What about the AUC ([1]; male, 10 mg/kg, Day 14, 10 mpk PO, male mice) of the same compound?
**A.** 3860 µM·h

**Q.** What about the AUC ([1]; male, 20 mg/kg, Day 1, 20 mpk PO, male mice) of the same compound?
**A.** 3670 µM·h

**Q.** What about the AUC ([1]; male, 20 mg/kg, Day 14, 20 mpk PO, male mice) of the same compound?
**A.** 5090 µM·h

**Q.** What about the AUC ([1]; male, 30 mg/kg, Day 1, 30 mpk PO, male mice) of the same compound?
**A.** 4470 µM·h

**Q.** And the AUC ([1]; male, 30 mg/kg, Day 14, 30 mpk PO, male mice)?
**A.** 6660 µM·h

**Q.** What about the “Days of treatment (survival, per animal)” value [2] of the same compound?
**A.** 42 days and 40 days and 37 days and 41 days

**Q.** What about the “Days of Study (survival, per animal)” value ([3]; 4 mg/kg HOSU-53) of the same compound?
**A.** 39 days and 46 days and 43 days and 42 days and 32 days and 40 days and 41 days

**Q.** And the “Days of Study (survival, per animal)” value ([3]; 10 mg/kg HOSU-53)?
**A.** 38 days and 50 days and 49 days and 51 days and 53 days and 52 days

**Q.** And the IC50 (CYP 1A2)?
**A.** 19.6 µM

**Q.** And the IC50 (CYP 2C8)?
**A.** 1.82 µM

**Q.** And the bioavailability (In vivo p.o. PK in rat; read-out: in vivo p.o. bioavailability (F))?
**A.** 59%

**Q.** What about the half-life (In vivo p.o. PK in rat; read-out: in vivo p.o. t1/2 (converted)) of the same compound?
**A.** 7.6 h
